Test results as given in patent US20250195530A1, “POLQ INHIBITORS” (ASTRAZENECA AB, priority 2022, published 2025).
Read-outs that look alike come from different tables or passages of the source.

Experiments:
DLD-1 BRCA2−/− cells = test: Homologous recombination synthetic lethal inhibition of proliferation, DLD-1 BRCA2-/- (Cell Titre Glo 3D); type: cell-based; settings: Homo sapiens, taken as DLD-1 BRCA2-/-, read-out: POLQ PD Prolif Lumin (converted)
In short: (§1)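 Luminescent Cell Titre Glo 3D readout, taken on day 12 for homologous-recombination-deficient DLD-1 BRCA2−/− and day 7 for the wild-type control, after compound refresh on day 6. Compounds spanned 10 μM to 0.51 nM in three-fold steps; IC50 defined as 50% reduction of average maximum signal.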

DLD-1 cells = test: Inhibition of proliferation, DLD-1 BRCA2 wt control (Cell Titre Glo 3D); type: cell-based; settings: Homo sapiens, read-out: POLQ PD Prolif Lumin (converted)
In short: as §1

[1] = DLD-1, proliferation, luminescence
[2] = DLD-1, proliferation, luminescence, second Prolif column (c6), taken as DLD-1 BRCA2 wt control

| IC50 (DLD-1 cells; DLD-1, second proliferation column (c6), taken as DLD-1 BRCA2 wt) [nM] | IC50 (DLD-1 cells; [2]) [nM] | SMILES | IC50 (DLD-1 BRCA2−/− cells; DLD-1, first proliferation column (c5)) [nM] | IC50 (DLD-1 BRCA2−/− cells; [1]) [nM] |
| --- | --- | --- | --- | --- |
| > 10000 | – | Cc1cnc(Cn2c(-c3ccc(OCCCN4CCCC4)cc3Cl)nc3c(OC4(C)CC4)ncnc32)s1 [Example T388, 2-((8-(2-chloro-4-(3-(pyrrolidin-1-yl)propoxy)phenyl)-6-(1-methylcyclopropoxy)-9H-purin-9-yl)methyl)-5-methylthiazole] | 251 | – |
| – | > 10000 | Cc1cnc(Cn2c(-c3ccc(OCCCN4CC[C@@H](O)C4)cc3Cl)nc3c(OC4(C)CC4)ncnc32)s1 [Example T391, (R)-1-(3-(3-chloro-4-(6-(1-methylcyclopropoxy)-9-((5-methylthiazol-2-yl)methyl)-9H-purin-8-yl)phenoxy)propyl)pyrrolidin-3-ol] | – | 501 |
| – | 794 | Cc1cnc(Cn2c(-c3cccc(OCCCN4CC[C@@H](O)C4)c3Cl)nc3c(OC4(C)CC4)ncnc32)s1 [Example T392, (R)-1-(3-(2-chloro-3-(6-(1-methylcyclopropoxy)-9-((5-methylthiazol-2-yl)methyl)-9H-purin-8-yl)phenoxy)propyl)pyrrolidin-3-ol] | – | 794 |
| – | > 10000 | Cc1cnc(Cn2c(-c3ccc(OCCN4CCNC[C@@H]4C)cc3Cl)nc3c(OC4(C)CC4)ncnc32)s1 [Example T393, (S)-2-((8-(2-chloro-4-(2-(2-methylpiperazin-1-yl)ethoxy)phenyl)-6-(1-methylcyclopropoxy)-9H-purin-9-yl)methyl)-5-methylthiazole] | – | 794 |
| – | > 10000 | C[C@H](CCOc1ccc(-c2nc3c(OC4(C)CC4)ncnc3n2Cc2cccc(C#N)c2)c(Cl)c1)C(=O)O [Example T401, (R)-4-(3-chloro-4-(9-(3-cyanobenzyl)-6-(1-methylcyclopropoxy)-9H-purin-8-yl)phenoxy)-2-methylbutanoic acid] | – | 398 |
| – | > 10000 | C[C@H](CCOc1ccc(-c2nc3c(OC4(C)CC4)ncnc3n2Cc2ccccc2C#N)c(Cl)c1)C(=O)O [Example T402, (R)-4-(3-chloro-4-(9-(2-cyanobenzyl)-6-(1-methylcyclopropoxy)-9H-purin-8-yl)phenoxy)-2-methylbutanoic acid] | – | 398 |
| – | > 10000 | C[C@@H](CCOc1ccc(-c2nc3c(OC4(C)CC4)ncnc3n2Cc2ccccc2C#N)c(Cl)c1)C(=O)O [Example T403, (S)-4-(3-chloro-4-(9-(2-cyanobenzyl)-6-(1-methylcyclopropoxy)-9H-purin-8-yl)phenoxy)-2-methylbutanoic acid] | – | 398 |
| – | > 10000 | CC1(Oc2ncnc3c2nc(-c2ccc(OCCC4(C(=O)O)CC4)cc2Cl)n3Cc2cccc(Cl)c2)CC1 [Example T407, 1-(2-(3-chloro-4-(9-(3-chlorobenzyl)-6-(1-methylcyclopropoxy)-9H-purin-8-yl)phenoxy)ethyl)cyclopropane-1-carboxylic acid] | – | 316 |
| – | > 10000 | Cc1ccnc(Cn2c(-c3ccc(C(=O)N4CCC(F)CC4)cc3Cl)nc3c(OC4(C)CC4)ncnc32)c1 [Example T419, (3-chloro-4-(6-(1-methylcyclopropoxy)-9-((4-methylpyridin-2-yl)methyl)-9H-purin-8-yl)phenyl)(4-fluoropiperidin-1-yl)methanone] | – | 1000 |
| – | > 10000 | Cc1ccnc(Cn2c(-c3ccc(CC(=O)N4C[C@@H](O)[C@H](F)C4)cc3Cl)nc3c(OC4(C)CC4)ncnc32)c1 [Example T422, 2-(3-chloro-4-(6-(1-methylcyclopropoxy)-9-((4-methylpyridin-2-yl)methyl)-9H-purin-8-yl)phenyl)-1-((3R,4R)-3-fluoro-4-hydroxypyrrolidin-1-yl)ethan-1-one] | – | 1000 |
| – | 10000 | FC(F)(F)C1(Oc2ncnc3c2nc(-c2ccc(OCCN4CCNCC4)cc2Cl)n3Cc2ccccc2)COC1 [Example T424, 9-benzyl-8-(2-chloro-4-(2-(piperazin-1-yl)ethoxy)phenyl)-6-((3-(trifluoromethyl)oxetan-3-yl)oxy)-9H-purine] | – | 2000 |
| – | > 10000 | CC1(Oc2ncnc3c2nc(-c2ccc(OCCCN4CC(O)C4)cc2Cl)n3Cc2cc(C(F)(F)F)ccn2)CC1 [Example T425, 1-(3-(3-chloro-4-(6-(1-methylcyclopropoxy)-9-((4-(trifluoromethyl)pyridin-2-yl)methyl)-9H-purin-8-yl)phenoxy)propyl)azetidin-3-ol] | – | 501 |
| – | > 10000 | Cc1ccnc(Cn2c(-c3ccc(C(=O)N4CC5(CNC5)C4)cc3Cl)nc3c(OC4(C)CC4)ncnc32)c1 [Example T428, (3-chloro-4-(6-(1-methylcyclopropoxy)-9-((4-methylpyridin-2-yl)methyl)-9H-purin-8-yl)phenyl)(2,6-diazaspiro[3.3]heptan-2-yl)methanone] | – | > 10000 |
| – | > 10000 | Cc1ccnc(Cn2c(-c3ccc(C(=O)N4CC5(CCN5)C4)cc3Cl)nc3c(OC4(C)CC4)ncnc32)c1 [Example T429, (3-chloro-4-(6-(1-methylcyclopropoxy)-9-((4-methylpyridin-2-yl)methyl)-9H-purin-8-yl)phenyl)(1,6-diazaspiro[3.3]heptan-6-yl)methanone] | – | 1260 |
| – | > 10000 | Cc1ccnc(Cn2c(-c3ccc(CC(=O)N4CCNC(=O)C4)cc3Cl)nc3c(OC4(C)CC4)ncnc32)c1 [Example T431, 4-(2-(3-chloro-4-(6-(1-methylcyclopropoxy)-9-((4-methylpyridin-2-yl)methyl)-9H-purin-8-yl)phenyl)acetyl)piperazin-2-one] | – | 2510 |
| – | > 10000 | CC1(Oc2ncnc3c2nc(-c2ccc(OCCC(C)(C)C(=O)O)cc2Cl)n3Cc2cccc(Cl)c2)CC1 [Example T435, 4-(3-chloro-4-(9-(3-chlorobenzyl)-6-(1-methylcyclopropoxy)-9H-purin-8-yl)phenoxy)-2,2-dimethylbutanoic acid] | – | 200 |
| – | > 10000 | CC1(Oc2ncnc3c2nc(-c2ccc(OCCCCCC(=O)O)cc2Cl)n3Cc2cccc(Cl)c2)CC1 [Example T437, 6-(3-chloro-4-(9-(3-chlorobenzyl)-6-(1-methylcyclopropoxy)-9H-purin-8-yl)phenoxy)hexanoic acid] | – | 63.1 |
| – | > 10000 | CC1(Oc2ncnc3c2nc(-c2cccc(OCCCCCC(=O)O)c2Cl)n3Cc2cccc(Cl)c2)CC1 [Example T440, 6-(2-chloro-3-(9-(3-chlorobenzyl)-6-(1-methylcyclopropoxy)-9H-purin-8-yl)phenoxy)hexanoic acid] | – | 25.1 |
| – | > 10000 | CC1(Oc2ncnc3c2nc(-c2ccc(OCCCOCCC(=O)O)cc2Cl)n3Cc2cccc(Cl)c2)CC1 [Example T449, 3-(3-(3-chloro-4-(9-(3-chlorobenzyl)-6-(1-methylcyclopropoxy)-9H-purin-8-yl)phenoxy)propoxy)propanoic acid] | – | 50.1 |
| – | > 10000 | CC1(Oc2ncnc3c2nc(-c2ccc(OCCOC(C)(C)C(=O)O)cc2Cl)n3Cc2cccc(Cl)c2)CC1 [Example T450, 2-(2-(3-chloro-4-(9-(3-chlorobenzyl)-6-(1-methylcyclopropoxy)-9H-purin-8-yl)phenoxy)ethoxy)-2-methylpropanoic acid] | – | 200 |
| – | > 10000 | CC1(Oc2ncnc3c2nc(-c2ccc(OCCOCCOCC(=O)O)cc2Cl)n3Cc2cccc(Cl)c2)CC1 [Example T451, 2-(2-(2-(3-chloro-4-(9-(3-chlorobenzyl)-6-(1-methylcyclopropoxy)-9H-purin-8-yl)phenoxy)ethoxy)ethoxy)acetic acid] | – | 501 |
| – | > 10000 | CC1(Oc2ncnc3c2nc(-c2ccc(OCCCN4CC(O)C4)cc2Cl)n3Cc2cc(C(F)F)ccn2)CC1 [Example T452, 1-(3-(3-chloro-4-(9-((4-(difluoromethyl)pyridin-2-yl)methyl)-6-(1-methylcyclopropoxy)-9H-purin-8-yl)phenoxy)propyl)azetidin-3-ol] | – | 794 |
| – | > 10000 | CC1(Oc2ncnc3c2nc(-c2ccc(OCCN4CCNCC4)cc2C(F)(F)F)n3Cc2cc(Cl)ccn2)CC1 [Example T453, 9-((4-chloropyridin-2-yl)methyl)-6-(1-methylcyclopropoxy)-8-(4-(2-(piperazin-1-yl)ethoxy)-2-(trifluoromethyl)phenyl)-9H-purine] | – | 251 |

| SMILES | IC50 (DLD-1 cells; DLD-1, second proliferation column (c6), taken as DLD-1 BRCA2 wt) [nM] | IC50 (DLD-1 cells; [2]) [nM] | IC50 (DLD-1 BRCA2−/− cells; DLD-1, first proliferation column (c5)) [nM] | IC50 (DLD-1 BRCA2−/− cells; [1]) [nM] |
| --- | --- | --- | --- | --- |
| CC1(Oc2cccc3c2nc(-c2ccc(OCCC(=O)O)cc2Cl)n3Cc2cccc(Cl)c2)CCC1 [Example T406, 3-(3-chloro-4-(1-(3-chlorobenzyl)-4-(1-methylcyclobutoxy)-1H-benzo[d]imidazol-2-yl)phenoxy)propanoic acid] | – | > 10000 | – | 2000 |
| Cc1ccnc(Cn2c(-c3ccc(C(=O)N4CC5CC(C4)N5)cc3Cl)nc3c(OC4(C)CC4)ncnc32)c1 [Example T427, (3,6-diazabicyclo[3.1.1]heptan-3-yl)(3-chloro-4-(6-(1-methylcyclopropoxy)-9-((4-methylpyridin-2-yl)methyl)-9H-purin-8-yl)phenyl)methanone] | – | > 10000 | – | 7940 |
| CC1(Oc2ncnc3c2nc(-c2ccc(OCCCCOCC(=O)O)cc2Cl)n3Cc2cccc(Cl)c2)CC1 [Example T445, 2-(4-(3-chloro-4-(9-(3-chlorobenzyl)-6-(1-methylcyclopropoxy)-9H-purin-8-yl)phenoxy)butoxy)acetic acid] | – | > 10000 | – | 251 |
| CC1(Oc2ncnc3c2nc(-c2cccc(OCCCCOCC(=O)O)c2Cl)n3Cc2cccc(Cl)c2)CC1 [Example T448, 2-(4-(2-chloro-3-(9-(3-chlorobenzyl)-6-(1-methylcyclopropoxy)-9H-purin-8-yl)phenoxy)butoxy)acetic acid] | – | > 10000 | – | 79.4 |
